Measured values from patent US4110327A, “2,3 Diketo-piperazinocarbonylamino alkanoic acids and derivatives” (Toyama Chemical Co., Ltd., priority 1974, dated 1978).
Converted amounts (≈) assume the structure as drawn. One block for each molecule: values may come before it.

Assays:
Assay type in all cases: cell-based
Staphylococcus aureus = experiment: MIC against clinical isolates; conditions: unit assumed
Escherichia coli = experiment: MIC against clinical isolates; conditions: unit assumed
Proteus rettgeri = experiment: MIC against clinical isolates; conditions: clinical isolate, unit assumed
Pseudomonas aeruginosa = experiment: MIC against clinical isolates; conditions: unit assumed
Klebsiella pneumoniae [1] = experiment: MIC against clinical isolates; conditions: unit assumed
[2] = tested on: Pseudomonas aeruginosa I.F.O.; experiment: MIC against standard strain, plate method; conditions: unit assumed
How it was run: (§1)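 Agar plate dilution MIC in heart infusion agar, pH 7.4. Inoculum was 10^4 cells per plate, from a suspension of 10^6 cells/ml.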

[3] = tested on: Staphylococcus aureus 209p; experiment: MIC against standard strain, plate method; conditions: unit assumed
How it was run: as §1

Klebsiella pneumoniae [4] = experiment: MIC against standard strain, plate method; conditions: unit assumed
How it was run: as §1

Proteus vulgaris 3027 = experiment: MIC against standard strain, plate method; conditions: Proteus vulgaris 3027, standard strain; unit assumed
How it was run: as §1

Escherichia coli NIHJ = experiment: MIC against standard strain, plate method; conditions: unit assumed
How it was run: as §1

Proteus mirabilis = experiment: MIC against clinical isolates; conditions: clinical isolate, unit assumed
Proteus vulgaris = experiment: MIC against clinical isolates; conditions: clinical isolate, unit assumed
Proteus morganii = experiment: MIC against clinical isolates; conditions: clinical isolate, unit assumed

Compound: CC(=O)OCC1=C(C(=O)O)N2C(=O)C(NC(=O)C(NC(=O)N3CCN(C)C(=O)C3=O)c3ccccc3)C2SC1 (single isomer, unassigned) [compound 60]
MIC (Staphylococcus aureus; clinical isolate F-1): 3.13 µg/mL (≈ 5.59 µM)
MIC (Staphylococcus aureus; clinical isolate F-2): 0.78 µg/mL (≈ 1.39 µM)
MIC (Staphylococcus aureus; clinical isolate F-3): 1.56 µg/mL (≈ 2.79 µM)
MIC (Staphylococcus aureus; clinical isolate F-4): 1.56 µg/mL (≈ 2.79 µM)
MIC (Staphylococcus aureus; clinical isolate F-5): 50 µg/mL (≈ 89.4 µM)
MIC (Staphylococcus aureus; clinical isolate MS 8588): 1.56 µg/mL (≈ 2.79 µM)
MIC (Staphylococcus aureus; clinical isolate MS 8596): 0.78 µg/mL (≈ 1.39 µM)
MIC (Staphylococcus aureus; clinical isolate MS 8619): 0.78 µg/mL (≈ 1.39 µM)
MIC (Staphylococcus aureus; clinical isolate MS 8684): 1.56 µg/mL (≈ 2.79 µM)
MIC (Staphylococcus aureus; clinical isolate MS 8713): 0.78 µg/mL (≈ 1.39 µM)
MIC (Escherichia coli; clinical isolate GN 3435): 6.25 µg/mL (≈ 11.2 µM)
MIC (Escherichia coli; clinical isolate GN 3452): 12.5 µg/mL (≈ 22.3 µM)
MIC (Escherichia coli; clinical isolate GN 3465): 100 µg/mL (≈ 179 µM)
MIC (Escherichia coli; clinical isolate GN 3481): 6.25 µg/mL (≈ 11.2 µM)
MIC (Escherichia coli; clinical isolate GN 3611): > 200 µg/mL
MIC (Escherichia coli; clinical isolate K-1): 6.25 µg/mL (≈ 11.2 µM)
MIC (Escherichia coli; clinical isolate K-2): 12.5 µg/mL (≈ 22.3 µM)
MIC (Escherichia coli; clinical isolate K-3): 200 µg/mL (≈ 357 µM)
MIC (Escherichia coli; clinical isolate K-4): 25 µg/mL (≈ 44.7 µM)
MIC (Proteus rettgeri): 6.25 µg/mL (≈ 11.2 µM)
MIC (Pseudomonas aeruginosa; clinical isolate GN 82): 50 µg/mL (≈ 89.4 µM)
MIC (Pseudomonas aeruginosa; clinical isolate GN 163): 50 µg/mL (≈ 89.4 µM)
MIC (Pseudomonas aeruginosa; clinical isolate GN 221): 12.5 µg/mL (≈ 22.3 µM)
MIC (Pseudomonas aeruginosa; clinical isolate GN 244): 50 µg/mL (≈ 89.4 µM)
MIC (Pseudomonas aeruginosa; clinical isolate GN 376): 50 µg/mL (≈ 89.4 µM)
MIC (Pseudomonas aeruginosa; clinical isolate GN 383): 50 µg/mL (≈ 89.4 µM)
MIC (Pseudomonas aeruginosa; clinical isolate GN 1035): 200 µg/mL (≈ 357 µM)
MIC (Pseudomonas aeruginosa; clinical isolate GN 1091): 50 µg/mL (≈ 89.4 µM)
MIC (Pseudomonas aeruginosa; clinical isolate GN 2565): 100 µg/mL (≈ 179 µM)
MIC (Pseudomonas aeruginosa; clinical isolate GN 2987): 50 µg/mL (≈ 89.4 µM)
MIC (Pseudomonas aeruginosa; clinical isolate S-1): 200 µg/mL (≈ 357 µM)
MIC (Pseudomonas aeruginosa; clinical isolate S-2): 100 µg/mL (≈ 179 µM)
MIC (Pseudomonas aeruginosa; clinical isolate S-3): 100 µg/mL (≈ 179 µM)
MIC (Pseudomonas aeruginosa; clinical isolate S-4): 100 µg/mL (≈ 179 µM)
MIC (Klebsiella pneumoniae [1]; clinical isolate GN 917): 6.25 µg/mL (≈ 11.2 µM)
MIC (Klebsiella pneumoniae [1]; clinical isolate GN 4081): 25 µg/mL (≈ 44.7 µM)
MIC (Klebsiella pneumoniae [1]; clinical isolate GN 4117): 25 µg/mL (≈ 44.7 µM)
MIC [2]: 25 µg/mL (≈ 44.7 µM)
MIC [3]: 0.79 µg/mL (≈ 1.41 µM)
MIC (Klebsiella pneumoniae [4]): 3.13 µg/mL (≈ 5.59 µM)
MIC (Proteus vulgaris 3027): 3.13 µg/mL (≈ 5.59 µM)
MIC (Escherichia coli NIHJ): < 0.1 µg/mL
MIC (Proteus mirabilis): 3.13 µg/mL (≈ 5.59 µM)
MIC (Proteus vulgaris): 1.56 µg/mL (≈ 2.79 µM)
MIC (Proteus morganii): 3.13 µg/mL (≈ 5.59 µM)

Compound: Cc1nnc(SCC2=C(C(=O)O)N3C(=O)C(NC(=O)C(NC(=O)N4CCN(C)C(=O)C4=O)c4ccccc4)C3SC2)s1 (single isomer, unassigned) [compound 62]
MIC (Staphylococcus aureus; clinical isolate F-1): 3.13 µg/mL (≈ 4.95 µM)
MIC (Staphylococcus aureus; clinical isolate F-2): 0.78 µg/mL (≈ 1.23 µM)
MIC (Staphylococcus aureus; clinical isolate F-3): 1.56 µg/mL (≈ 2.47 µM)
MIC (Staphylococcus aureus; clinical isolate F-4): 1.56 µg/mL (≈ 2.47 µM)
MIC (Staphylococcus aureus; clinical isolate F-5): 12.5 µg/mL (≈ 19.8 µM)
MIC (Staphylococcus aureus; clinical isolate MS 8588): 1.56 µg/mL (≈ 2.47 µM)
MIC (Staphylococcus aureus; clinical isolate MS 8596): 0.78 µg/mL (≈ 1.23 µM)
MIC (Staphylococcus aureus; clinical isolate MS 8619): 0.78 µg/mL (≈ 1.23 µM)
MIC (Staphylococcus aureus; clinical isolate MS 8684): 1.56 µg/mL (≈ 2.47 µM)
MIC (Staphylococcus aureus; clinical isolate MS 8713): 1.56 µg/mL (≈ 2.47 µM)
MIC (Escherichia coli; clinical isolate GN 3435): 6.25 µg/mL (≈ 9.89 µM)
MIC (Escherichia coli; clinical isolate GN 3452): 6.25 µg/mL (≈ 9.89 µM)
MIC (Escherichia coli; clinical isolate GN 3465): 25 µg/mL (≈ 39.6 µM)
MIC (Escherichia coli; clinical isolate GN 3481): 6.25 µg/mL (≈ 9.89 µM)
MIC (Escherichia coli; clinical isolate GN 3611): 200 µg/mL (≈ 317 µM)
MIC (Escherichia coli; clinical isolate K-1): 6.25 µg/mL (≈ 9.89 µM)
MIC (Escherichia coli; clinical isolate K-2): 12.5 µg/mL (≈ 19.8 µM)
MIC (Escherichia coli; clinical isolate K-3): 200 µg/mL (≈ 317 µM)
MIC (Escherichia coli; clinical isolate K-4): 12.5 µg/mL (≈ 19.8 µM)
MIC (Proteus rettgeri): 6.25 µg/mL (≈ 9.89 µM)
MIC (Pseudomonas aeruginosa; clinical isolate GN 82): 100 µg/mL (≈ 158 µM)
MIC (Pseudomonas aeruginosa; clinical isolate GN 163): 50 µg/mL (≈ 79.1 µM)
MIC (Pseudomonas aeruginosa; clinical isolate GN 221): 50 µg/mL (≈ 79.1 µM)
MIC (Pseudomonas aeruginosa; clinical isolate GN 244): 100 µg/mL (≈ 158 µM)
MIC (Pseudomonas aeruginosa; clinical isolate GN 376): 100 µg/mL (≈ 158 µM)
MIC (Pseudomonas aeruginosa; clinical isolate GN 383): 100 µg/mL (≈ 158 µM)
MIC (Pseudomonas aeruginosa; clinical isolate GN 1035): 200 µg/mL (≈ 317 µM)
MIC (Pseudomonas aeruginosa; clinical isolate GN 1091): 100 µg/mL (≈ 158 µM)
MIC (Pseudomonas aeruginosa; clinical isolate GN 2565): 100 µg/mL (≈ 158 µM)
MIC (Pseudomonas aeruginosa; clinical isolate GN 2987): 50 µg/mL (≈ 79.1 µM)
MIC (Pseudomonas aeruginosa; clinical isolate S-1): 200 µg/mL (≈ 317 µM)
MIC (Pseudomonas aeruginosa; clinical isolate S-2): 200 µg/mL (≈ 317 µM)
MIC (Pseudomonas aeruginosa; clinical isolate S-3): 200 µg/mL (≈ 317 µM)
MIC (Pseudomonas aeruginosa; clinical isolate S-4): 200 µg/mL (≈ 317 µM)
MIC (Klebsiella pneumoniae [1]; clinical isolate GN 917): 6.25 µg/mL (≈ 9.89 µM)
MIC (Klebsiella pneumoniae [1]; clinical isolate GN 4081): 12.5 µg/mL (≈ 19.8 µM)
MIC (Klebsiella pneumoniae [1]; clinical isolate GN 4117): 25 µg/mL (≈ 39.6 µM)
MIC [2]: 50 µg/mL (≈ 79.1 µM)
MIC [3]: 0.79 µg/mL (≈ 1.25 µM)
MIC (Klebsiella pneumoniae [4]): 1.57 µg/mL (≈ 2.49 µM)
MIC (Proteus vulgaris 3027): 3.13 µg/mL (≈ 4.95 µM)
MIC (Escherichia coli NIHJ): < 0.1 µg/mL
MIC (Proteus mirabilis): 6.25 µg/mL (≈ 9.89 µM)
MIC (Proteus vulgaris): 3.13 µg/mL (≈ 4.95 µM)
MIC (Proteus morganii): 3.13 µg/mL (≈ 4.95 µM)

MIC (Staphylococcus aureus; clinical isolate F-1): 3.13 µg/mL (≈ 5.08 µM)
MIC (Staphylococcus aureus; clinical isolate F-2): 0.78 µg/mL (≈ 1.27 µM)
MIC (Staphylococcus aureus; clinical isolate F-3): 1.56 µg/mL (≈ 2.53 µM)
MIC (Staphylococcus aureus; clinical isolate F-4): 1.56 µg/mL (≈ 2.53 µM)
MIC (Staphylococcus aureus; clinical isolate F-5): 12.5 µg/mL (≈ 20.3 µM)
MIC (Staphylococcus aureus; clinical isolate MS 8588): 1.56 µg/mL (≈ 2.53 µM)
MIC (Staphylococcus aureus; clinical isolate MS 8596): 1.56 µg/mL (≈ 2.53 µM)
MIC (Staphylococcus aureus; clinical isolate MS 8619): 0.78 µg/mL (≈ 1.27 µM)
MIC (Staphylococcus aureus; clinical isolate MS 8684): 1.56 µg/mL (≈ 2.53 µM)
MIC (Staphylococcus aureus; clinical isolate MS 8713): 1.56 µg/mL (≈ 2.53 µM)
MIC (Escherichia coli; clinical isolate GN 3435): 3.13 µg/mL (≈ 5.08 µM)
MIC (Escherichia coli; clinical isolate GN 3452): 12.5 µg/mL (≈ 20.3 µM)
MIC (Escherichia coli; clinical isolate GN 3465): 25 µg/mL (≈ 40.6 µM)
MIC (Escherichia coli; clinical isolate GN 3481): 3.13 µg/mL (≈ 5.08 µM)
MIC (Escherichia coli; clinical isolate GN 3611): 100 µg/mL (≈ 162 µM)
MIC (Escherichia coli; clinical isolate K-1): 3.13 µg/mL (≈ 5.08 µM)
MIC (Escherichia coli; clinical isolate K-2): 6.25 µg/mL (≈ 10.2 µM)
MIC (Escherichia coli; clinical isolate K-3): 50 µg/mL (≈ 81.2 µM)
MIC (Escherichia coli; clinical isolate K-4): 6.25 µg/mL (≈ 10.2 µM)
MIC (Proteus rettgeri): 3.13 µg/mL (≈ 5.08 µM)
MIC (Pseudomonas aeruginosa; clinical isolate GN 82): 50 µg/mL (≈ 81.2 µM)
MIC (Pseudomonas aeruginosa; clinical isolate GN 163): 25 µg/mL (≈ 40.6 µM)
MIC (Pseudomonas aeruginosa; clinical isolate GN 221): 25 µg/mL (≈ 40.6 µM)
MIC (Pseudomonas aeruginosa; clinical isolate GN 244): 50 µg/mL (≈ 81.2 µM)
MIC (Pseudomonas aeruginosa; clinical isolate GN 376): 50 µg/mL (≈ 81.2 µM)
MIC (Pseudomonas aeruginosa; clinical isolate GN 383): 25 µg/mL (≈ 40.6 µM)
MIC (Pseudomonas aeruginosa; clinical isolate GN 1035): 100 µg/mL (≈ 162 µM)
MIC (Pseudomonas aeruginosa; clinical isolate GN 1091): 50 µg/mL (≈ 81.2 µM)
MIC (Pseudomonas aeruginosa; clinical isolate GN 2565): 50 µg/mL (≈ 81.2 µM)
MIC (Pseudomonas aeruginosa; clinical isolate GN 2987): 25 µg/mL (≈ 40.6 µM)
MIC (Pseudomonas aeruginosa; clinical isolate S-1): 100 µg/mL (≈ 162 µM)
MIC (Pseudomonas aeruginosa; clinical isolate S-2): 100 µg/mL (≈ 162 µM)
MIC (Pseudomonas aeruginosa; clinical isolate S-3): 100 µg/mL (≈ 162 µM)
MIC (Pseudomonas aeruginosa; clinical isolate S-4): 100 µg/mL (≈ 162 µM)
MIC (Klebsiella pneumoniae [1]; clinical isolate GN 917): 3.13 µg/mL (≈ 5.08 µM)
MIC (Klebsiella pneumoniae [1]; clinical isolate GN 4081): 6.25 µg/mL (≈ 10.2 µM)
MIC (Klebsiella pneumoniae [1]; clinical isolate GN 4117): 6.25 µg/mL (≈ 10.2 µM)
MIC [2]: 25 µg/mL (≈ 40.6 µM)
MIC [3]: < 0.79 µg/mL
MIC (Klebsiella pneumoniae [4]): < 0.79 µg/mL
MIC (Proteus vulgaris 3027): 1.57 µg/mL (≈ 2.55 µM)
MIC (Escherichia coli NIHJ): < 0.79 µg/mL
MIC (Proteus mirabilis): 3.13 µg/mL (≈ 5.08 µM)
MIC (Proteus vulgaris): 1.56 µg/mL (≈ 2.53 µM)
MIC (Proteus morganii): 3.13 µg/mL (≈ 5.08 µM)
Compound: CN1CCN(C(=O)NC(C(=O)NC2C(=O)N3C(C(=O)O)=C(CSc4nnnn4C)CSC23)c2ccccc2)C(=O)C1=O (single isomer, unassigned) [compound 63]
